Consider one substance from US20110142959A1, “METHODS, SYSTEMS AND COMPOSITIONS INVOLVED IN THE SYNTHESIS OF NONSTABLE COMPOUNDS” (priority 2009, published 2011).

The data set in a line: Degradation of ferrate (K2FeO4) in solution at various pH. Type of data set: physicochemical. The method, then: FIG. 1 is a profile of the ferrate concentration starting at 0.1% (5 mM) at the native pH of K2FeO4, about 10.7. […] FIGS. 2 and 3 show the ferrate degrading faster at the higher pH's recommended by the Ciampi et al patent(s). Within about 21-46 minutes in the range of pH 11.2-11.8 the ferrate completely degraded. At this higher pH the Fe(OH)3 forms much faster and contributes to the acceleration in degradation.
FIG. 4 discloses a slightly lower pH of 10.4 which was buffered to approximately pH 9 with NaOH. Ferrate was detected in the solution for about four hours.

In the case of K2FeO4, the “time ferrate was detected in the solution” value (pH 10.4, buffered to approximately pH 9 with NaOH (FIG. 4)) is listed as “about four”. Further, the “time within which the ferrate completely degraded” value (pH 11.2-11.8 (FIGS. 2 and 3)) is 21 to 46 min. Moreover, under “starting at 0.1% (5 mM), native pH of K2FeO4 about 10.7 (FIG. 1)”, the “time ferrate was present in the solution” value is listed as “about 220 minutes”.
